US5338849A, “Azaindoles, preparation processes and medicinal products containing them” (Lipha, Lyonnaise Industrielle Pharmaceutique, priority 1992, dated 1994)

How the values were obtained:
blood cholesterol level = test: Test B: measurement of the hypocholesterolaemic effect in rodents; assay type: in vivo, male Wistar rats; details: Rattus norvegicus; oral, cholesterol-fed rats (2.5% cholesterol, 8 days), 24 hours and 4 hours before sacrifice; read-out: 25% effective dose (ED25), quantity of compound which lowers the blood cholesterol level by 25%
Procedure: Test B: measurement of the hypocholesterolaemic effect in rodents; male Wistar rats weighing 200-220 g are subjected to a diet enriched with 2.5% of cholesterol for 8 days; on the last two days, they are treated orally with the test product, 24 hours and 4 hours before being sacrificed by exsanguination: the blood cholesterol level is evaluated on an aliquot fraction of serum by an automated enzymatic method. The results are expressed in the form of a 25% effective dose (ED25) in mg per kg of animal body weight, which represents the quantity of compound which lowers the blood cholesterol level by 25%.

[1] = system: intestinal absorption of cholesterol; test: Test C: measurement of the inhibition of intestinal absorption of cholesterol in rats; assay type: in vivo, Wistar male rats; details: Rattus norvegicus; oral, fasted rats, Triton WR-1339 i.v., [^3 H]cholesterol orally; read-out: 50% effective dose (ED50), quantity of compound which inhibits intestinal absorption of cholesterol by 50%
Procedure: Test C: measurement of the inhibition of intestinal absorption of cholesterol in rats; Wistar male rats weighing 230-250 g, fasted for 24 hours, are treated simultaneously with the test product administered orally and with Triton WR-1339 administered i.v.; one hour later, they are treated again orally with [^3 H]cholesterol; three hours later, under ether anaesthesia, 1 ml of blood is withdrawn from their retro-orbital sinus: the blood radioactivity, evaluated on 0.1 ml of serum, represents the measure of the absorption of the [^3 H]cholesterol administered. The results are expressed in the form of a 50% effective dose (ED50) in mg per kg of animal body weight, which represents the quantity of compound which inhibits intestinal absorption of cholesterol by 50%.

aortic ACAT = molecular target: T1, aortic ACAT (Oryctolagus cuniculus, UniProt A0A5F9CPP4); test: Test A: measurement of the inhibition of aortic ACAT in vitro in rabbits; assay type: biochemical, male New Zealand rabbits; details: rabbit aortic microsomes, [^14 C]oleoylcoenzyme A, read-out: 50% inhibitory concentration (IC50), concentration of compound which inhibits the ACAT activity by 50%
T1 construct: the aorta is removed, dissected and homogenised in order to prepare the microsomal fraction by ultracentrifugation; from tissue; host or cells: aorta microsomes of cholesterol-fed male New Zealand rabbits
T1 sequence (A0A5F9CPP4 1-555): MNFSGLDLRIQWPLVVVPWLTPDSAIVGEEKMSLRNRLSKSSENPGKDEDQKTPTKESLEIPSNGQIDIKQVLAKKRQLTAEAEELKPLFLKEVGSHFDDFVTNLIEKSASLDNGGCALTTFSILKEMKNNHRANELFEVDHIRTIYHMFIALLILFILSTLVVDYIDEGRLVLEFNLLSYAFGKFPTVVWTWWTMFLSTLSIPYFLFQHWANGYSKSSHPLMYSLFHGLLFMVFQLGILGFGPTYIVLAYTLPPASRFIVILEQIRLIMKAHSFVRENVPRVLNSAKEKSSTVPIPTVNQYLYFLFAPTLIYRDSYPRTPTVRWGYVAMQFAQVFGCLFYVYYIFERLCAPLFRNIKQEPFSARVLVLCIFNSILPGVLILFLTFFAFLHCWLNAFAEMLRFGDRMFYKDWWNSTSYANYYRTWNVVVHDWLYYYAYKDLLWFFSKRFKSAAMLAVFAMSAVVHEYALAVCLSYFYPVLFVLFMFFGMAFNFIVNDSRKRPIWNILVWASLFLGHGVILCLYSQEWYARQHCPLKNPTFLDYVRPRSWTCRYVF
Procedure: Test A: measurement of the inhibition of aortic ACAT in vitro in rabbits; male New Zealand rabbits weighing between 2.2 and 2.5 kg, subjected beforehand for 15 days to a diet enriched with 1.25% of cholesterol, are sacrificed by cervical dislocation; the aorta is removed, dissected and homogenised in order to prepare the microsomal fraction by ultracentrifugation; these microsomes are incubated in the presence of [^14 C]oleoylcoenzyme A according to the method described by P. J. GILLIES et al., Exp. and Mol. Pathol., 1986, 44, 329-339; the lipids are extracted from the incubate with a methanol/chloroform mixture and the [^14 C]oleoylcholesterol is separated by TLC: the latter compound represents the measure of the ACAT activity, and the results are expressed in the form of a 50% inhibitory concentration (IC50), representing the concentration of compound which inhibits the ACAT activity by 50%.

IC50 (aortic ACAT): 160 nM
SMILES: CC(C)c1cccc(C(C)C)c1NC(=O)NCC1(n2ccc3cccnc32)CCCC1 [compound no. 1, N^1-[1-(7-azaindol-1-yl)cyclopentylmethyl]-N^2-(2,6-diisopropylphenyl)urea]
ED25 (blood cholesterol level): 0.202 mg/kg | ED50 [1]: 0.056 mg/kg
